A short description of the data set: Human HepG2 cell viability assay in 384 well format. Type of data set: toxicity, cell-based. Also noted: dose 125 nL, time 70.5 hour; cytotoxicity at 70.5 h: concentration not given beside the values. As to conditions: HepG2 cells, read-out: Inhibition.

Structures are written as SMILES.

Regarding `CC(C)(C)c1coc([C@@H]2COCCN2CC2CC2)n1`, the cytotoxicity at 70.5 h is -0.839%.

Consider `CCCOc1cc(C)c2c(c1C)C[C@H]([C@H](C)C(=O)O)CC2`, for which the cytotoxicity at 70.5 h is -3.42%. Under `COc1ccc2c(c1)nc1n2[C@@H](CNC(=O)c2ccccn2)COC1` stands -7.73%; under `Cn1c(CO[C@H]2CN(S(C)(=O)=O)C[C@H]2F)nc2ccccc21`, -1.31%; under `FC(F)(F)c1ccc(CNC[C@H]2COCc3nc4cccnc4n32)cc1`, -3.68%. Under `Cc1noc([C@@H]2C[C@H](NS(=O)(=O)Cc3ccccc3)CN2C)n1` stands -3.9%. In the case of `O=C1CO[C@H]2CN(Cc3c[nH]c4ccccc34)C[C@H]2N1`, the cytotoxicity at 70.5 h stood at 7.73%.

For `COc1ccc2c(c1)nc1n2[C@@H](CNCc2ncccc2C)COC1`, the cytotoxicity at 70.5 h is -5.69%. For `c1ccc2c(c1)nc1n2[C@@H](CNCc2nccs2)COC1` the value was -19.6%.

As to `O=C(C1CC1)N1C[C@@H](F)[C@@H](OCc2nc3ccccc3o2)C1`, the cytotoxicity at 70.5 h stood at 0.185%. For `COCCOc1ccnc(-c2noc([C@@H]3CCCN3C(C)C)n2)c1` the value was -5.66%; for `NC(=O)c1cccc2nc([C@H]3CCN(Cc4ccccc4F)C3)[nH]c12`, -3.45%; for `CC(C)NC(=O)N[C@H]1C[C@@H](Cc2cc(CN3CCOCC3)on2)C1(C)C`, -8.22%. On to `COCCN1C(=O)CO[C@H]2CN(Cc3ccccc3OC)C[C@H]21`, for which the cytotoxicity at 70.5 h is -13.3%. As for `COC(=O)c1ccc2nc(CO[C@H]3CN(CC4CC4)C[C@H]3F)[nH]c2c1`, the cytotoxicity at 70.5 h worked out at 1.07%. With `CC(=O)NC[C@H]1COCc2nc3c(C)cccc3n21`, the cytotoxicity at 70.5 h turned out to be 10.8%. For `Cc1ccc2[nH]c(CO[C@H]3CN(C(=O)C4CC4)C[C@H]3F)nc2c1` the value was 3.41%. Under `CS(=O)(=O)c1ccc(CNC[C@H]2COCc3nc4cccnc4n32)cc1` stands -1.94%; under `c1cnc2c(c1)nc1n2[C@@H](CNCc2nccs2)COC1`, -8.24%; under `Cc1cc2nc(CO[C@H]3CN(C)C[C@H]3F)[nH]c2cc1C`, -0.513%.

In the case of `CC(=O)N1CCC(N[C@@H]2CO[C@H](CNC(=O)C3CCCC3)[C@H]2O)CC1`, the cytotoxicity at 70.5 h is -5.38%. For `O=C1N(c2ccccc2)C[C@H]2CN(C3CCC3)CCN12` the value was -3.05%; for `COCCN1C[C@H]2CN(Cc3cccc(OC(F)(F)F)c3)CCN2C1=O`, -7.08%. For `COCCN1C[C@H]2CN(Cc3cccc(OC)c3)CCN2C1=O` the value was -7.25%. On to `O=C1N(Cc2cccnc2)C[C@H]2CN(S(=O)(=O)c3ccccc3)CCN12`, for which the cytotoxicity at 70.5 h worked out at 1.73%. On to `O[C@H]1COCCN(Cc2cccc3c2OCO3)C1`, for which the cytotoxicity at 70.5 h was -4.2%.

Consider `COc1ccc(O[C@H]2COCCN(Cc3c[nH]c4ccccc34)C2)cc1`, for which the cytotoxicity at 70.5 h was found to be 1.44%.

In the case of `CO[C@H]1COCCN(C(=O)c2ccc(F)cc2)C1`, the cytotoxicity at 70.5 h was -3.92%.

Turning to `Cc1ccc(S(=O)(=O)NC[C@H]2OC[C@@H](NCc3ccccc3)[C@@H]2O)cc1`, the cytotoxicity at 70.5 h was -10%. Regarding `O=C1N(Cc2ccccc2)C[C@H]2CN(Cc3ccccc3Cl)CCN12`, the cytotoxicity at 70.5 h is -1.14%. For `CS(=O)(=O)N1CCN2C(=O)N(C3CCCCC3)C[C@H]2C1`, the cytotoxicity at 70.5 h stood at 7.82%. For `O=C1NC[C@H]2CN(Cc3ccccn3)CCN12` the value was 0.693%; for `CN1C[C@H]2CN(C(=O)c3ccc4c(c3)OCO4)CCN2C1=O`, -8.59%; for `CS(=O)(=O)N1CCN2C(=O)N(C3CCOCC3)C[C@H]2C1`, 12.9%. Under `COc1ccc(-c2cn3c(n2)CO[C@@H](CNCc2ccccn2)C3)cc1` stands -0.00582%. On to `c1cncc(O[C@H]2COCCN(C3CCC3)C2)c1`, for which the cytotoxicity at 70.5 h stood at 1.49%. For `CC(C)C(=O)N1CCOC[C@H](Oc2ccc(C(F)(F)F)cc2)C1`, the cytotoxicity at 70.5 h is -1.93%.

Turning to `COc1ccc(CN2CCOC[C@H](OCC(=O)N(C)C)C2)cc1`, the cytotoxicity at 70.5 h is -1.39%.

`COc1ccc(-c2noc([C@@H](C)NS(=O)(=O)CC(C)C)c2C(=O)O)cc1`: the cytotoxicity at 70.5 h was -10.7%. `C[C@@H](NC(=O)c1cnccn1)c1c(-c2ccc(F)cc2)noc1C(=O)O`: the cytotoxicity at 70.5 h is -1.48%. Take `CC(C)N1CCOC[C@H]1c1nc(C(C)(C)C)c[nH]1`: the cytotoxicity at 70.5 h amounted to 0.329%. For the compound `CC(C)(C)c1coc([C@@H]2COCCN2Cc2ccccc2)n1`, the cytotoxicity at 70.5 h was determined as 0.308%. Turning to `c1cc(-c2c[nH]c([C@@H]3COCCN3Cc3ncc[nH]3)n2)ccn1`, the cytotoxicity at 70.5 h stood at 1.76%.

With `c1cc(-c2c[nH]c([C@@H]3COCCN3Cc3csnn3)n2)ccn1`, the cytotoxicity at 70.5 h turned out to be 12.8%.

For the compound `CC(C)NC(=O)N1CCCC2(CCCCN2)C1` (stereo unspecified), the cytotoxicity at 70.5 h was -7.7%.

In the case of `CCC(CC)C(=O)N1CCOC2(CNC2)C1`, the cytotoxicity at 70.5 h was 6.77%.

`CC(=O)N1CC2C[C@]2(NC(=O)c2ccco2)C1` (stereo partly specified): the cytotoxicity at 70.5 h was 18.4%. For `CC(C)NC(=O)N1CCC2(CC1)[C@@H]1CN(C(=O)N(C)C)C[C@@H]1C(=O)N2C` the value was -7.71%; for `CC(=O)N1CCC2(CC1)[C@@H]1CN(C(=O)N(C)C)C[C@@H]1C(=O)N2C`, -7.5%. Regarding `CC(C)C(=O)NC1COC2(CCN(C(=O)c3ccc[nH]3)CC2)C1` (stereo unspecified), the cytotoxicity at 70.5 h is -7.92%.

For the compound `CC(=O)N1C[C@@H]2C(=O)N(C)C3(CCN(C(=O)C(C)C)CC3)[C@@H]2C1`, the cytotoxicity at 70.5 h is -7.63%. For `CCN1C(=O)[C@H]2CN(Cc3cccnc3)C[C@H]2C12CCN(C(C)=O)CC2` the value was -10.7%.

With `CN(C)C(=O)CCC(=O)N1CCC2(CC1)COC2`, the cytotoxicity at 70.5 h turned out to be 12.8%.

Regarding `CC(C)NC(=O)N1CCOC2(CNC2)C1`, the cytotoxicity at 70.5 h was -4.25%. Take `O=C1CCC2(CCCN(C(=O)c3cnccn3)CC2)N1` (stereo unspecified): the cytotoxicity at 70.5 h stood at 1.43%.

In the case of `CC(=O)N1CCC2(CC1)NC(=O)[C@H]1CN(Cc3cccnc3)C[C@H]12`, the cytotoxicity at 70.5 h stood at 18.4%. As to `O=C1CO[C@@H]2CN(C(=O)CCc3ccccc3)C[C@H]2N1`, the cytotoxicity at 70.5 h is -5.06%. For `CC(C)CC(=O)N1CCC2(CC1)[C@@H]1CN(C(=O)N(C)C)C[C@@H]1C(=O)N2C` the value was -3.34%; for `CC(=O)N1CCC2(CC1)[C@@H]1CN(Cc3cccnc3)C[C@@H]1C(=O)N2C`, 18.5%; for `Cc1cc(C(=O)N[C@H](C)c2onc(-c3cccnc3)c2C(=O)O)c(C)o1`, -2.03%.

Take `CN(C)C(=O)C1CCC2(CCNCC2)C1` (stereo unspecified): the cytotoxicity at 70.5 h was -2.3%. For `CCN1CC2(CNCCN(C(=O)Nc3ccccc3)C2)CC1=O` (stereo unspecified) the value was 2.39%; for `CN(Cc1ccco1)C1CCC12CCN(C(=O)c1ccnnc1)CC2` (stereo unspecified), 5.1%; for `Cc1cc(CN2CC[C@H]3[C@H]2CCN3S(C)(=O)=O)oc1C`, -8.76%. Under `CN(Cc1ccco1)C1CCC12CCN(C(=O)c1ccco1)CC2` (stereo unspecified) stands -0.239%. Regarding `CN1CC2(CNCCN(C(=O)Nc3ccccc3)C2)CC1=O` (stereo unspecified), the cytotoxicity at 70.5 h was -7.57%.

For the origin of these results see ChEMBL document CHEMBL3507680, “University of Dundee, Gates Library screen for HepG2 cell viability”.
